Test results from patent US6875773B1, “Combination therapy for treatment of FIV infection” (priority 1998, dated 2005).

Tests used:
[1] = system: FIVPet; experiment: Anti-FIV activity (RT activity in supernatant) in feline T-cell line chronically infected with FIVPet (FL-4 cells); assay type: cell-based, Feline immunodeficiency virus; conditions: nontoxic doses
Procedure: (§1) The antiviral activity of the drugs at noncytotoxic doses were evaluated in feline T-cell lines chronically infected with either FIVPet (subtype A strain) (panel A), or FIVBang (subtype B strain) (panel B). The RT data are presented as % control, whereby % control represents RT mean of triplicate treated cultures divided by RT mean of triplicate untreated cultures and multiplied by 100. The RT data on harvest days at 6, 9, and 12 are shown.
(§2) In the first set of in vitro studies, feline T-cell lines chronically infected with FIVPet, (FL-4 cells) or FIVBang, (FIVBang/FeT-J cells) at 2×10^5 cells/ml were treated for 3 weeks with a single drug or various combinations of AZT, 3TC, an FIV protease inhibitor (FIV-PI; Hoescht-Bayer HBY-793), and HIV protease inhibitors (HIV-PI) (FIGS. 1A and 1B). Saquinavir (SQV) and Indinavir (IDV) were used as the HIV-PIs. Culture supernatants were harvested and the cells were resuspended in fresh culture media containing appropriate drug(s) at […]. Viral replication was determined by measuring the levels of reverse transcriptase (RT) activity in the culture supernatants (Rey et al., 1984). Drug toxicity in these cultures were monitored by viability and absolute cell count analyses using trypan blue exclusion method (Mishell et al., 1980).
(§3) Single and combination drug doses which were determined to be nontoxic to the test cells were used in these studies.

[2] = system: FIVBang; experiment: Anti-FIV activity (RT activity in supernatant) in feline T-cell line chronically infected with FIVBang (FIVBang/FeT-J cells); assay type: cell-based, Feline immunodeficiency virus; conditions: nontoxic doses
Procedure: as §1, §2, §3

[3] = system: FIVBang; experiment: Anti-FIV activity (RT activity) in primary cat PBMC infected with FIVBang; assay type: cell-based, Feline immunodeficiency virus; conditions: for FIV replication in PBMC (RT activity), result in words: FIVBang 100 TCID50, drug added immediately before inoculation, nontoxic doses; for effect of adding the protease inhibitor to the AZT/3TC combination on antiviral activity: FIVBang
Procedure: Nucleoside analogue and PI doses were 0.1 μM in Experiment 1 (panel A) and 0.05 μM and 0.01 μM, respectively, in Experiment 2 (panel B).
(§4) As a means to simulate in vivo conditions, primary peripheral blood mononuclear cells (PBMC) from specific pathogen free (SPF) cats were next used as the indicator cells. Primary PBMC isolated by ficoll hypaque method were stimulated with concanavalin A for 3 days and cultured for an additional 2 weeks before their use in drug studies (Staszewski, 1995). Antiretroviral drug(s) were added to the PBMC cultures (1×10^6 cells/ml) immediately before FIVBang, (subtype B) or FIVUK-8(subtype A) inoculation of 100 50% tissue culture infectious dose (TCID50).

[4] = system: FIVUK-8; experiment: Anti-FIV activity (RT activity) in primary cat PBMC infected with FIVUK-8; assay type: cell-based, Feline immunodeficiency virus; conditions: for FIV replication in PBMC (RT activity), result in words: FIVUK-8 100 TCID50, drug added immediately before inoculation, nontoxic doses; for effect of adding the protease inhibitor to the AZT/3TC combination on antiviral activity: FIVUK-8
Procedure: Nucleoside analogue and P1 doses were 0.1 μM and 0.01-0.5 μM, respectively, in Experiment 1 (panel A) and 0.05 μM and 0.01-0.5 μM respectively, in Experiment 2 (panel B).
as §4

[5] = biological target: FIV protease (Feline immunodeficiency virus, UniProt P16088); conditions: Dunn et al., 1994; Wlodawer et al., 1995; cited from earlier work
[6] = biological target: HIV protease (Human immunodeficiency virus type 1 group M subtype B, UniProt P04585); conditions: Dunn et al., 1994; Wlodawer et al., 1995; cited from earlier work
[7] = system: FIV; conditions: background statement, no reference given; cited from earlier work

CC(C)[C@H](NC(=O)[C@H](Cc1cccc2ccccc12)CS(=O)(=O)C(C)(C)C)C(=O)N[C@@H](Cc1ccccc1)[C@H](O)[C@H](O)[C@H](Cc1ccccc1)NC(=O)[C@@H](NC(=O)[C@H](Cc1cccc2ccccc12)CS(=O)(=O)C(C)(C)C)C(C)C [FIV-PI]
inhibition of RT activity / FIV replication ([1]; treated for 3 weeks): 70-80%
inhibition of RT activity / FIV replication ([2]; treated for 3 weeks): 70-80%
FIV replication in PBMC (RT activity), result in words [3]: inhibited FIV replication
FIV replication in PBMC (RT activity), result in words [4]: inhibited FIV replication
binding to FIV protease [5]: efficiently binds
binding to HIV protease [6]: efficiently binds

CC(C)(C)NC(=O)[C@@H]1CN(Cc2cccnc2)CCN1C[C@@H](O)C[C@@H](Cc1ccccc1)C(=O)N[C@H]1c2ccccc2C[C@H]1O [IDV, Indinavir]
anti-FIV activity (RT activity), result in words [1]: neither SQV nor IDV alone had significant anti-FIV effect
anti-FIV activity (RT activity), result in words [2]: neither SQV nor IDV alone had significant anti-FIV effect
effect of adding the protease inhibitor to the AZT/3TC combination on antiviral activity [3]: did not enhance the antiviral activity of the AZT/3TC combination
FIV replication in PBMC (RT activity), result in words [3]: lack of anti-FIV activity
effect of adding the protease inhibitor to the AZT/3TC combination on antiviral activity [4]: did not enhance the antiviral activity of the AZT/3TC combination
FIV replication in PBMC (RT activity), result in words [4]: lack of anti-FIV activity
FIV replication in PBMC in vitro [7]: do not inhibit FIV replication

CC(C)(C)NC(=O)[C@@H]1C[C@@H]2CCCC[C@@H]2CN1C[C@@H](O)[C@H](Cc1ccccc1)NC(=O)[C@H](CC(N)=O)NC(=O)c1ccc2ccccc2n1 [SQV, Saquinavir]
anti-FIV activity (RT activity), result in words [1]: neither SQV nor IDV alone had significant anti-FIV effect
anti-FIV activity (RT activity), result in words [2]: neither SQV nor IDV alone had significant anti-FIV effect
effect of adding the protease inhibitor to the AZT/3TC combination on antiviral activity [3]: did not enhance the antiviral activity of the AZT/3TC combination
FIV replication in PBMC (RT activity), result in words [3]: lack of anti-FIV activity
effect of adding the protease inhibitor to the AZT/3TC combination on antiviral activity [4]: did not enhance the antiviral activity of the AZT/3TC combination
FIV replication in PBMC (RT activity), result in words [4]: lack of anti-FIV activity
FIV replication in PBMC in vitro [7]: do not inhibit FIV replication

CC(C)c1nc(CN(C)C(=O)N[C@H](C(=O)N[C@@H](Cc2ccccc2)C[C@H](O)[C@H](Cc2ccccc2)NC(=O)OCc2cncs2)C(C)C)cs1 [Ritonavir]
FIV replication in PBMC in vitro [7]: do not inhibit FIV replication

Cc1c(O)cccc1C(=O)N[C@@H](CSc1ccccc1)[C@H](O)CN1C[C@H]2CCCC[C@H]2C[C@H]1C(=O)NC(C)(C)C [Nelfinavir]
FIV replication in PBMC in vitro [7]: do not inhibit FIV replication
